From US11022604B2, “Dock derived compound against laminin receptor (37 LR) and uses thereof” (Purdue Research Foundation, priority 2017, dated 2021)

Test system: LNCaP androgen dependent metastatic prostate cancer cells
Experiment: Cell viability screen (CCK-8), LNCaP cells
Assay type: cell-based
Settings: Homo sapiens, CCK-8, 96 hours, read-out: IC50, inhibition of cell viability
Description: FIGS. 2A-2H. Dose response curves. Does response curves for cell lines treated with 6, 10.5, 18.6, 32.4, 57.5 and 100 μM of compound (log) for 96 hours using % cell viability derived from CCK-8 absorbance readings at 450 nm (n=3, mean±SEM). A DMSO equivalent control (n=2±SEM) was also included for each cell line tested: Ea.hy.926 endothelial cells (Endo), LNCaP androgen dependent metastatic prostate cancer cells, TC2-Ras mouse prostate cancer cells, PC-3 androgen independent metastatic prostate cancer cells, and SH-SY5Y neruoblastoma cells. […]
Cell Viability Screen. […] Cell viability was measured by using the cell counting kit-8 (CCK-8, Dojindo). […] CCK-8 absorbance was measured at 450 nm using a GloMax Multimode Reader (Promega). Readings were performed the day after seeding to normalize for variations in cell seeding and after 96 hours of compound treatment. After each reading, CCK-8 media was removed and replaced with media containing compound as described previously. […] As described previously, an initial baseline CCK-8 reading was performed at 24 hours post seeding to correct for variations in seeding density. First, 450 nm values for each well were subtracted from media only readings to correct for baseline absorbance. Then, the 96 hour readings were normalized to their respective 24 hour readings to control for seeding variation. […]

SMILES: O=C(c1cc(F)cc2c1OCOC2)N1CCN(C2c3ccccc3-c3ccccc32)CC1 [Compound C3, [4-(9h-fluoren-9-yl)piperazino](6-fluoro-4h-1,3-benzodioxin-8-yl)methanone]
- IC50: 10.3 µM
